Reference: US12662452B2, “Solid state forms of lucerastat and process for preparation thereof” (ASSIA CHEMICAL INDUSTRIES LTD., priority 2019, dated 2026)

Experiments:
[1] = Exposure of the solid form to 20-80% relative humidity for 7 days at room temperature; type: physicochemical; conditions: exposed to 20-80% RH for 7 days at room temperature
[2] = Long term storage stability at 2-8° C.; type: physicochemical; conditions: storage at 2-8° C.

Question: Which results are given for Lucerastat: L-Pyroglutamic acid?
Answer: deliquescence [1]: does not deliquesce; polymorphic stability [1]: polymorphically stable; long term stability [2]: at least 1 year

Question: For “Lucerastat: Salicylic acid [Lucerastat: Salicylic acid Form LC-2]”, which long term stability [2] is on record?
Answer: at least 1 year
